Assay results as given in ChEMBL document CHEMBL2021846, “Symplocin A, a linear peptide from the Bahamian cyanobacterium Symploca sp. Configurational analysis of N,N-dimethylamino acids by chiral-phase HPLC of naphthacyl esters” (J Nat Prod, 2012).
pIC50: −log10 of the molar value. Activity calls are given as the source filed them. No cut-off for these calls is given here.

Tests used:
HCT-116 = experiment: Cytotoxicity against human HCT116 cells; assay type: functional, cell-based
Cathepsin E = target: T1, Cathepsin E (Homo sapiens, UniProt P14091); experiment: Inhibition of cathepsin E
T1 sequence (P14091 whole entry): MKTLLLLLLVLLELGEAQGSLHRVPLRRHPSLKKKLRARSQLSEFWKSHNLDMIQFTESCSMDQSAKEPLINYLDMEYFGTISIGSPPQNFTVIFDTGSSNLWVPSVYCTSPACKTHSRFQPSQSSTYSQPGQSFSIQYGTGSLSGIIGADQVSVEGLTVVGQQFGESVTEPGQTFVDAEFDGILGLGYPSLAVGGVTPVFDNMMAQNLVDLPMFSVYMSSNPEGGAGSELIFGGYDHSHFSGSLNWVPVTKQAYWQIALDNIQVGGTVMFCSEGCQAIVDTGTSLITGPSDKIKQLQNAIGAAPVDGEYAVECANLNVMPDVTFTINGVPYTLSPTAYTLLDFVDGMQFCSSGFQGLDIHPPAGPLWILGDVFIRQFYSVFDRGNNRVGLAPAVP

SMILES: CC[C@@H](C)[C@H](C(=O)O[C@@H](C(=O)N[C@@H](Cc1ccc(O)cc1)C(=O)N[C@@H](CO)C(=O)N[C@@H](CC(C)C)[C@H](O)CC(=O)N[C@H](C(=O)NCC(=O)N(C)[C@H](Cc1ccccc1)C(=O)N1CCC[C@H]1C(=O)OC)C(C)C)C(C)C)N(C)C [SYMPLOCIN A]
- Activity (HCT-116): inactive
- pIC50 (Cathepsin E): 9.52
